From patent publication US8853406B2, “Substituted phenylenediamines as inhibitors of the interaction between MDM2 and P53” (Janssen Pharmaceutica NV, priority 2007, dated 2014)

Test system: p53 in A2780 cells
Assay: p53 ELISA in A2780 cells (capacity to preserve p53)
Assay type: cell-based
Details: lowest dose giving at least 140% of the p53 value of the control, 16 hours
Procedure: The capacity of the compounds to preserve p53 in A2780 cells was measured with the p53 enzyme linked immunosorbent assay. The p53 assay is a “sandwich” enzyme immunoassay employing two polyclonal antibodies. A polyclonal antibody, specific for the p53 protein, has been immobilized onto the surface of the plastic wells. Any p53 present in the sample to be assayed will bind to the capture antibody. The biotinylated detector polyclonal antibody also recognizes p53 protein, and will bind to any p53, which has been retained by the capture antibody. The detector antibody, in turn, is bond by horseradish peroxidase-conjugated streptavidin. The horseradish peroxidase catalyses the conversion of the chromogenic substrate o-phenylene diamine, the intensity of which is proportional to the amount of p53 protein bond to the plate. The colored reaction product is quantified using a spectrophotometer. Quantitation is achieved by the construction of a standard curve using known concentrations of purified recombinant HIS tagged p53 protein (see example C.1.).
A2780 cells (ATCC) were cultivated in RPMI 1640 supplemented with 10% fetal calf serum (FCS), 2 mM L-glutamine and gentamycin at 37° C. in a humidified incubator with 5% CO2.
A2780 cells were seeded at 20.000 cells per well in a 96 well plate, cultured for 24 hours and treated with compound for 16 hours at 37° C. in a humidified incubator. After incubation, the cells were washed once with phosphate-buffered saline and 30 μl, per well, low salt RIPA buffer (20 mM tris, pH7.0, 0.5 mM EDTA, 1% Nonidet P40, 0.5% DOC, 0.05% SDS, 1 mM PMSF, 1 μg/ml aprotinin and 0.5 μ/ml leupeptin) was added. Plates were placed on ice for 30 minutes to complete the lysis. p53 protein was detected in de lysates by using the sandwich ELISA, described below.
High binding polystyrene EIA/RIA 96 well plates (Costar 9018) were coated with the capture antibody pAb1801 (Abcam ab28-100) at a concentration of 1 μg/ml in coating buffer (0.1 M NaHCO3 pH8.2), 50 μl per well. The antibody was allowed to adhere overnight at 4° C. Coated plates were washed once with phosphate-buffered saline (PBS)/0.05% Tween 20 and 300 μl of blocking buffer (PBS, 1% bovine serum albumins (BSA)) was added, for an incubation period of 2 hours at room temperature. Dilutions of purified recombinant HIS tagged p53 protein, ranging from 3-200 ng/ml, were made in blocking buffer and used as standards.
Plates were washed twice with PBS/0.05% Tween 20 and blocking buffer or standards were added at 80 μl/well. To the standards, 20 μl of lysis buffer was added. The samples were added to the other wells at 20 μl lysate/well. After an overnight incubation at 4° C., plates were washed twice with PBS/0.05% Tween 20. Aliquots of 100 μl secondary polyclonal antibody p53(FL-393) (Tebubio, sc-6243) at a concentration of 1 μg/ml in blocking buffer were added to each well and allowed to adhere for 2 hours at room temperature. Plates were washed three times with PBS/0.05% Tween 20. Detection antibody anti-rabbit HRP (sc-2004, Tebubio) at 0.04 μg/ml in PBS/1% BSA was added and incubated for 1 hour at room temperature. Plates were washed three times with PBS/0.05% Tween 20 and 100 μl of substrate buffer was added (substrate buffer was prepared shortly before use by adding 1 tablet of 10 mg o-phenylene diamine (OPD) from Sigma and 125 μl 3% H2O2 to 25 ml OPD buffer: 35 mM citric acid, 66 mM Na2HPO4, pH5.6). After 5 to 10 minutes, colour reaction was stopped by adding 50 μl stop buffer (1 M H2SO4) per well. The absorbance at dual wavelengths of 490/655 nm was measured using a Biorad micro plate reader and the results were then analyzed.
For each experiment, controls (containing no drug) and a blank incubation (containing no cells or drugs) were run in parallel. The blank value was subtracted from all control and sample values. For each sample, the value of p53 (in absorbance units) was expressed as the percentage of the value for p53 present in the control. […]

SMILES | A2780 p53-elisa LAD (listed as drawing 36) | A2780 p53-elisa LAD (listed as drawing 35)
Cc1cc(Nc2ccnc3c2CCC3O)ccc1NCCc1c[nH]c2c(C)cccc12 (single isomer, unassigned) [Compound No. 2] | 1.00E-07 | –
Cc1cc(Nc2ccnc3c2CCC3O)ccc1NCCc1c[nH]c2c(C)cccc12 (single isomer, unassigned) [Compound No. 1] | – | 3.00E-08
